Peptide text beside a SMILES is read from it.
Experiments:
[1] = Solubility in water and aqueous buffer; assay type: physicochemical
Excerpt: (§1) As the interaction interface between RNAP β1β2 domain and the transcription factor (CarD^NTD and TRCF-RID) ([Westblade et al., 2010]; [Gulten and Sacchettini, 2013]) is relatively large, flat, solvent-exposed, and devoid of the binding pocket, it is challenging to design small molecule-based inhibitors. We therefore aimed to design the peptide-based RNAP β/transcription factor inhibitors by selecting the key residues involved in the interaction at the conserved PPI interface between RNAP β and transcription factor complex. The sequence and molecular weight of the designed peptides are mentioned in Table 1. PEP-FOLD3.1 ([Lamiable et al., 2016]), an online server, was used to predict the de novo structures of the designed peptides by running 100 simulations for each peptide. PEP-FOLD3.1 provides the information in the form of models which are generated by OPEP (Optimized Potential for Efficient structure Prediction) energy. The topmost model with the lowest OPEP score having minimum energy and maximum stability for each peptide was selected for further computational analysis. The designed peptides were 7–8 amino acids in length and were commercially synthesized. The peptides were analyzed for their stability and solubility. All the peptides were soluble in water as well as in aqueous buffer with a solubility of > 10 mM.

[2] = Storage stability in water by LC-MS; assay type: physicochemical; conditions: stored for over a year at 4°C, LC-MS (C18), observed vs calculated molecular weight
Procedure: The stability of all the designed peptides was analyzed using Liquid chromatography-mass spectrometry (LC-MS) using Agilent Technologies (model G6550A). […] Peptide 3 was injected in the C18 column equilibrated in a positive mode at a flow rate of 0.5 mL/min using water as a mobile phase.
as §1, with “The topmost model with the lowest OPEP score having minimum energy and maximum stability for each peptide was selected for further computational analysis. The designed peptides were 7–8 amino acids in length and were commercially synthesized.” left out, “All the peptides were soluble in water as well as in aqueous buffer with a solubility of > 10 mM.” left out

## CC[C@H](C)[C@H](NC(=O)[C@H](CCC(=O)O)NC(=O)CNC(=O)[C@@H](N)[C@@H](C)O)C(=O)N[C@@H](CCCCN)C(=O)N[C@@H](CO)C(=O)N[C@@H](CCC(N)=O)C(=O)N[C@H](C(=O)O)[C@@H](C)O [Peptide 2] (H-TGEIKSQT-OH)
[1]
  Solubility (in words): soluble in aqueous buffer
[2]
  Stability on storage: highly stable

From paper PMC7505949, “Structure-Guided Designing and Evaluation of Peptides Targeting Bacterial Transcription” (Frontiers in Bioengineering and Biotechnology, 2020)
